In patent US20260376293A1, “METHODS FOR STUDYING GPR158 PHARMACOLOGY AND IDENTIFICATION OF ITS LIGANDS” (UNIVERSITY OF FLORIDA RESEARCH FOUNDATION, INCORPORATED, priority 2022, published 2026):

Target: T1, GPR158 E271A mutant (Homo sapiens, UniProt Q5T848, E271A)
T1 construct: glycine site in Cache domain
T1 sequence (Q5T848 24-1215 E271A): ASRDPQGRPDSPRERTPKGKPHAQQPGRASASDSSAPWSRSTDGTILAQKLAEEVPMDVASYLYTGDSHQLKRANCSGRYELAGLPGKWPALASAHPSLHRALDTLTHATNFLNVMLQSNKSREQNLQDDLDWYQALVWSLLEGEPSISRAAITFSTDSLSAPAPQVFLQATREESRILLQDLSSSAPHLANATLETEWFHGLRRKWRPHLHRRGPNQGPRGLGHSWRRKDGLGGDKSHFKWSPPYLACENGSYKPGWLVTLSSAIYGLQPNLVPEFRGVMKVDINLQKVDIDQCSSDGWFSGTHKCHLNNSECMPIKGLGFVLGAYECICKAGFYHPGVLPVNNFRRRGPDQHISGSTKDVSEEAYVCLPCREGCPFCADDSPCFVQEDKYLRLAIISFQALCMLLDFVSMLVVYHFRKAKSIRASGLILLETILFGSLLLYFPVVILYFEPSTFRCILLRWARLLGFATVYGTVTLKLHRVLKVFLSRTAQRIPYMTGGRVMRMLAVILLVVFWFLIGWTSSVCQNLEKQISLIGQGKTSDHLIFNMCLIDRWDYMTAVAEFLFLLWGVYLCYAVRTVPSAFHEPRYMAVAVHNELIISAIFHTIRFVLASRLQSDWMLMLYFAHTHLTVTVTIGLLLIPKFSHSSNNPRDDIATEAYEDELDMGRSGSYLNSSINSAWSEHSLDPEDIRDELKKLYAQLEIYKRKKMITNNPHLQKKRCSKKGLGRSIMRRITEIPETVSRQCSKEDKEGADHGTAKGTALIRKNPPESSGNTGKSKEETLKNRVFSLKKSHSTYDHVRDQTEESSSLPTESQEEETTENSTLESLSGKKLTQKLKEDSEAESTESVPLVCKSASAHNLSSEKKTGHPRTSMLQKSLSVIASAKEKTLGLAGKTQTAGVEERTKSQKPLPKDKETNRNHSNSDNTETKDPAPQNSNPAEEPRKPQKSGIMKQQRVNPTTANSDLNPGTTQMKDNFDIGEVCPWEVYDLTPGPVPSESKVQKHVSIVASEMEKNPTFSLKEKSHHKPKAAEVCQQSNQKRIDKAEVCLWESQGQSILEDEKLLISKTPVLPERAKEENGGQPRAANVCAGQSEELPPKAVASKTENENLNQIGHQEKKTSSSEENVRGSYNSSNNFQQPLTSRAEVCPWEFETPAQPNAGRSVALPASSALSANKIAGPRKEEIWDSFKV
Assay: Radioligand binding assay on GPR158 mutant E271A
Source text: FIGS. 11A-11G. Probing Cache domain of GPR158 as a ligand binding site A) Computational docking of glycine into putative ligand binding pocket on GPR158 Cache domain. Glycine and directly interacting residues are shown as sticks. Hydrogen bonds and van der Waals interactions are shown as dotted lines. B) Diagram showing interactions in the docked model of glycine against GPR158 Cache domain. Hydrogen bonds are shown as dashed lines, van der Waals interactions are shown as intersecting semicircles, and the secondary structural context of Ser266 and Tyr269 is shown as an arc. Dagger indicates a residue implicated in glycine binding in 11A. C) Radioligand binding assay of ^3H-glycine in cells expressing GPR158 mutants. Data shown mean±s.e.m. of 3 independent experiments, *p<0.05, ns=p>0.05 one-way ANOVA. D) Functional evaluation of GPR158 mutants in GAP BRET assay. Error bars are mean±s.e.m. of 3 independent experiments in triplicate. *p<0.05, **p<0.01, ***p<0.001, ****p<0.0001, ns=p>0.05, two-way ANOVA Columns with no fill (Ctrl), columns with angled-line fill (Glycine) E) Quantification of glycine inhibitory effect on kGAP normalized to the effect seen with WT receptor. […]
Whole cell binding was performed using cDNA of GPR158-venus or each GPR158-venus mutant or empty pcDNA3.1+ for ctrl cells. […] Finally radioactivity was measured using the liquid scintillation analyzer Tri-Carb 4910 TR.

[^3H]-glycine binding: near complete loss
Structure (SMILES): NCC(=O)O [^3H-glycine, [^3H]-glycine]
